Test: Human HepG2 cell viability assay in 384 well format
Format: toxicity, cell-based
Set-up: dose 125 nL, time 70.5 hour; cytotoxicity at 70.5 h: concentration not given beside the values
Conditions: HepG2 cells, read-out: Inhibition

| Structure (SMILES) | cytotoxicity at 70.5 h [%] |
| --- | --- |
| Cn1ncc(N2CCC(CNC3CC(c4ccccc4)C3)CC2)cc1=O (centres undefined) | -5.35 |
| CC(C)(C)CC(=O)Nc1ccc(S(C)(=O)=O)nc1 | -6.59 |
| Cc1ccccc1N1CCN(C(=O)c2cscn2)C(C)C1 (centres undefined) | -1.54 |
| CCn1nc(CC(C)C)cc1C(=O)NCC(F)(F)F | 12.8 |
| CC(C)c1ccc(-c2nonc2N)cc1 | 1.97 |
| O=C(C1CN(Cc2ccsc2)Cc2ccnn2C1)N1CCCC1 (centres undefined) | 2.84 |
| COC(=O)c1ccc(N2CCN(C(=O)c3ccncc3)C(C)C2)cc1 (centres undefined) | 15.3 |
| c1ccc(N2CC[C@H](OCC3CC3)[C@@H]2Cc2cccnc2)nc1 | -3.44 |
| COCC[C@]1(O)CCN(Cc2nc(C(C)C)cs2)C[C@H]1C | -6.41 |
| CSc1ccc(CNC2CCCc3c2cnn3C)cc1 (centres undefined) | -8.39 |
| Cc1csc(N2CCN(CC(=O)NCc3ccccn3)CC2C)n1 (centres undefined) | -13.9 |
| COc1cccc2ccn(CC(=O)NC(C)C)c12 | 11.3 |
| Cc1c(C)n2c(SCC(=O)N3CCCC3)nnc2[nH]c1=O | -7.34 |
| COc1coc(CN2CCCC(CCc3ccc(F)c(F)c3)C2)cc1=O (centres undefined) | 15.5 |
| Cc1nc(-c2ccc(S(=O)(=O)N3CCSCC3)cc2)co1 | -5.93 |
| CC(Cn1cccn1)NC(=O)NCCN1CCc2ccccc2C1 (centres undefined) | 0.199 |
| CN1[C@H](Cn2cncn2)C[C@@H]2CN(Cc3ccsc3)CC[C@@H]21 | -3.81 |
| COCCOc1ccccc1CNCc1c(C)nn(C)c1N(C)C | -0.188 |
| Cc1c(C(=O)N(C)CC(C)O)sc2nc(C(F)(F)F)ccc12 (centres undefined) | -9.55 |
| CC(C)Oc1cccc(CN2CCC(C(C)N3CCOCC3)CC2)c1 (centres undefined) | -8.8 |
| O=C(CC1CC1)N1C[C@@H]2CCN(c3cccnc3)C[C@@H]2C1 | -11.6 |
| CCC(CO)NC(=O)c1ccc2ccc(N(C)CC3CC3)n2c1 (centres undefined) | 3.39 |
| CC(C)CC(=O)N1C[C@@H]2CCN(c3ncccn3)C[C@@H]2C1 | 42.7 |

| Structure (SMILES) | cytotoxicity at 70.5 h [%] |
| --- | --- |
| CS(=O)(=O)N1CCC(NC(=O)COc2cccc(Cl)c2)CC1 | 1.43 |
| CCCc1n[nH]c(C2CN(CCNS(=O)(=O)CC)CCO2)n1 (centres undefined) | 7.53 |
| Cc1cccc(C2CCCN(C(=O)CN3CCC(C(N)=O)CC3)C2)c1 (centres undefined) | -4.32 |
| Cc1nnc2n1CC(CNc1ncnc3ccccc13)CC2 (centres undefined) | -11.6 |
| O=C(Nc1ccc(F)cc1)N1CCN(Cc2noc(C3CC3)n2)CC1 | 1.53 |
| CN1CCN(S(=O)(=O)c2cccnc2)c2cnccc21 | -3.64 |
| N#Cc1cn(C2CC2)c(=O)n(Cc2noc(-c3cccs3)n2)c1=O | -4.93 |
| Cc1nn(C(C)C)c(C)c1S(=O)(=O)Nc1ccc(C(=O)O)c(Cl)c1 | -5.52 |
| Cc1ccc(C2COCCN2C(=O)c2ccc(N(C)C)cc2)o1 (centres undefined) | -8.97 |
| COc1ccc(C2SCC(=O)Nc3ccsc32)cc1 (centres undefined) | -3.24 |
| COc1ccc(-n2nc(C(C)=O)c(C(C)=O)c2C)cc1Cl | 17.1 |
| Cc1nc(CN2CCCn3cnc(COC(C)C)c3C2)cs1 | -2.95 |
| COCCCNC(=O)c1cc(C(C)C)nc(N2CCCC2)n1 | -10.1 |
| Cn1ccnc1-c1cn(CCCc2nnc(N)s2)nn1 | -19.9 |
| COc1cccc(-c2ccnc(C3CCNCC3)c2)c1 | 7.37 |
| O=C(c1ccc(O)c(Cl)c1)N1C[C@@H](CN2CCCCCC2)[C@@H](CO)C1 | 3.21 |
| CSCC(=O)N1CCCN(c2ccccc2C)CC1 | -4.65 |
| Cc1ccc(OCCNC(=O)C(C)n2cncn2)cc1 (centres undefined) | 10.5 |
| COc1ccc(SCC2CNc3nc4ccccc4c(=O)n32)cc1 (centres undefined) | 1.56 |
| CCCc1nnc(NC2CCN(C3CCCC3)CC2)o1 | -12.5 |
| Cc1cc(C(=O)N2CCCC2)ccc1NCc1nc(CC(C)C)no1 | -9.73 |
| O[C@@H]1C[C@@](CNCC2CCCC2)(COc2cccnc2)C[C@@H]1O | -6.04 |
| CN(C)c1ncc2c(c1C(=O)O)CCN(Cc1ccco1)C2 | -4.04 |

| Structure (SMILES) | cytotoxicity at 70.5 h [%] |
| --- | --- |
| Cc1noc(C)c1CNC(=O)N1CCC(CN2CCC(C)CC2)CC1 | -2.8 |
| COc1cccc(OCCNCc2c(C)nn(C)c2N(C)C)c1 | -4.8 |
| O=C(O)[C@]12CCCN(Cc3cccnc3)[C@@H]1CCN(c1cnccn1)C2 | 2.83 |
| CN(C)[C@@H]1CCN(C(=O)c2ccsc2)[C@H]1Cc1cnn(C)c1 | -14.4 |
| O=C(O)c1cc(-c2ccncc2)cc(S(=O)(=O)N2CCSCC2)c1 | -6.71 |
| CNC(=O)CCOC(=O)c1cccc(-n2cccn2)c1 | -10.7 |
| Cc1cc(NCc2cc(C)oc2C(F)(F)F)n2nc(C)cc2n1 | -2.81 |
| O=C(Nc1nc2c(s1)CN(C(=O)NCc1cccs1)CC2)C1CC1 | -9.79 |
| O=S(=O)(CC1CC1)c1ncc(CN2CCSCC2)n1CC1CCCO1 (centres undefined) | -6.13 |
| CCCn1cc(C(=O)NCCCC(N)=O)c2ccccc21 | -2.51 |
| CCOCC1COCCC12CCN(C(=O)C1=CCCCC1)CC2 (centres undefined) | -4.56 |
| COc1ccccc1OCCCN1CCNC1=O | -8.47 |
| CN(C)C(=O)C1OC2(CCNCC2)c2ccccc21 (centres undefined) | -6.23 |
| COc1ccc(Cl)cc1NCC(=O)NCCNc1ncccn1 | -2.38 |
| CCCc1cncnc1N1CCC(NCc2cc3ccccc3[nH]2)CC1 | 8.09 |
| Cc1nsc(N2CCc3sccc3C2)n1 | -1.49 |
| O=C1CCN(C(=O)CCc2ccc(Cl)cc2Cl)CCN1 | -6.13 |
| Cc1ccc(-c2ccnc(NC(C)c3n[nH]c(=O)[nH]3)n2)c(C)n1 (centres undefined) | -12.8 |
| O=C(CCc1cscn1)N1CCCC(n2cncn2)C1 (centres undefined) | 10.8 |
| O=C(Cc1cccs1)NCC1(O)CCSC1 (centres undefined) | -5.51 |
| Fc1ccc(NCc2nnsc2Cl)c(OC(F)F)c1 | 0.194 |
| COc1ccc(CN2CCC3(CC(Nc4ccncn4)C3)C2)c(OC)c1 (centres undefined) | -6.97 |
| O=C(NC1CC1)C1=CC2(CCN(CC3CC3)CC2)c2ccccc21 | -4.67 |

| Structure (SMILES) | cytotoxicity at 70.5 h [%] |
| --- | --- |
| CO[C@@H]1CN(c2ccccc2)S(=O)(=O)[C@@]12CCN(S(C)(=O)=O)C2 | 15.4 |
| CN(Cc1ccccc1Br)C(=O)Cn1nc(-c2ccc(F)cc2)oc1=O | -8.06 |
| COc1ccc(C(C(=O)O)N2CCC(Cn3cccn3)CC2)c(OC)n1 (centres undefined) | 15.1 |
| CC(C)[C@H](NS(C)(=O)=O)C(=O)NCc1cc(-c2ccccc2)n[nH]1 | -10.8 |
| CC(C)N(CC(N)=O)Cc1csc(Cc2ccccc2)n1 | 24.4 |
| Cc1cc(C)c2c(NCCC34CCCN3CCC4)ncnc2n1 | -3.78 |
| O=C1NCc2ccccc2CC12CCN(Cc1c(F)cccc1Cl)C2 (centres undefined) | -5.69 |
| c1cnnc(N[C@@H]2CC[C@@H]3CN(Cc4c[nH]c5ccccc45)C[C@@H]32)c1 | 4.96 |
| CCc1csc(C2CCCN(C(=O)c3ccc4c(c3)OCO4)C2)n1 (centres undefined) | 13.2 |
| O=C1CCCN1Cc1noc(-c2ccc(Cl)cc2)n1 | -6.78 |
| NC(=O)c1nc2c(s1)CCN(Cc1ccccc1)CC2 | -2.47 |
| CN1CCN(c2ncccn2)CC(C(=O)N(C)C)C1 (centres undefined) | -5.5 |
| COCCNC(=O)[C@H]1C[C@@H]2CCN(c3ncccn3)C[C@@H]2O1 | -4.51 |
| COCC1CC2(CCN(c3cccc(C)n3)CC2)CN1c1ncccn1 (centres undefined) | -10.3 |
| O=C(NCCc1csc(-c2cccnc2)n1)c1cnn2c1CCCC2 | -7.57 |
| CS(=O)(=O)N1CCC(C(=O)N2CCC3(CC2)OCCCO3)CC1 | 54.6 |
| CC1(C)Cc2ccccc2-c2nc(NCCCO)[nH]c(=O)c21 | -3.41 |
| CN(C)C(=O)COC[C@@H]1CC[C@H]2[C@H](CCN2c2ncccn2)O1 | -66.5 |
| CC(C)N(CC(C)(C)O)C(=O)NC1CC1 | 20.8 |
| COc1cc2cc3c(nc2cc1OC)OCCN(Cc1cccs1)C3 | 28 |
| CCC(CO)NC(=O)Nc1cc(F)ccc1SCC(F)F (centres undefined) | -11.1 |
| CC(C)CCC(=O)NCC(=O)N1CCCCCC1c1ccco1 (centres undefined) | -5.74 |
| CS(=O)(=O)NCc1nnc2n1CCN(Cc1cccnc1)C2 | 18.3 |

| Structure (SMILES) | cytotoxicity at 70.5 h [%] |
| --- | --- |
| CN(C)S(=O)(=O)N1CCC(c2n[nH]cc2-c2ccnc(N)c2)C1 (centres undefined) | 5.75 |
| CN(Cc1ccc(N2CCCCC2)cc1)Cc1noc(C(C)(C)C)n1 | -9.02 |
| O=C(NC1CC1)c1cc(NC(=O)N2CCSCC2)ccc1Cl | 15.9 |
| c1ccc(N2CCCC3(COCCN(c4nccs4)C3)C2)nc1 (centres undefined) | -0.38 |
| O=C(C1CCOCC1)N1C[C@@H]2CN(Cc3ccsc3)CCO[C@@H]2C1 | -10.4 |
| c1cc(-c2c[nH]c([C@@H]3COCCN3C3CCOCC3)n2)ccn1 | -0.86 |
| Cc1nn(C)c(Cl)c1C1CCCN1CC(=O)NC1CCCCC1 (centres undefined) | 5.03 |
| CNC(=O)C(C)(C)N(C)C(=O)c1cc(COc2ccccc2OC)[nH]n1 | -5.11 |
| Cn1cc(CN2CCC[C@]3(C[C@H](Oc4ccccn4)CO3)C2)cn1 | -7.75 |
| Cc1ccc2oc(C(=O)N3CCCC(n4nc(C)cc4C)C3)cc2n1 (centres undefined) | -2.12 |
| CC(C)Cc1cc(C(=O)N2CCC(N3CCCC3)CC2)cc(O)n1 | -12.3 |
| N#Cc1cc(N2CCC(CS(N)(=O)=O)CC2)c2ccccc2n1 | 14.9 |
| Cc1nc(N2CCCC2)nc2c1CN(C(=O)NC(C)C)CC2 | -3.45 |
| Cc1cnc(C)c(N2CCN(CCCc3ccncc3)CC2)n1 | 6.37 |
| COC(=O)[C@H]1C[C@@H](O)CCN1S(=O)(=O)c1c(C)cc(OC)c(C)c1C | 27 |
| O=C1NCCN1C1CCCN(Cc2nnc(-c3ccc(F)cc3)o2)C1 (centres undefined) | -21.9 |
| CN(CCn1cnnc1)C(=O)c1ccnc(OC2CCC2)c1 | 16.2 |
| CC(C)C(C)N(C)C(=O)COc1ccccc1C#N (centres undefined) | 1.38 |
| CN(Cc1ccccn1)C(=O)C(c1ccccc1)N1CCSCC1 (centres undefined) | -7.59 |
| CC(CNC(=O)c1cccnc1Oc1cccnc1)N(C)C (centres undefined) | -8.64 |
| CCc1noc(C)c1C(=O)NCCCC(CC)(CC)C1OCCO1 | -5.2 |
| COc1ccc(C(=O)N2CCC(c3nccn3C(C)C)CC2)cc1OC | 22.5 |
